{
  "source": "patent US20080312184A1",
  "about": "(priority 2005, published 2008)",
  "system": "late blight phenylamide-resistant strain (zoospore+zoosporangia)",
  "format": "in vivo, tomatoes (cultivar: sekai-ichi)",
  "conditions": "single active ingredient",
  "key": {"[1]": {"conditions": "Table 3, treated concentration 10 ppm, examined after 5 days"}, "[2]": {"conditions": "Table 3, treated concentration 5 ppm, examined after 5 days"}},
  "note": "Read-outs that look alike come from different tables or passages of the source.",
  "data": [
    {"compound": "C[C@@]1(c2ccc(Oc3ccccc3)cc2)OC(=O)N(Nc2ccccc2)C1=O", "note": "(racemic) [Famoxadone, famoxadone]", "values": [
      {"measurement": "Control Value", "setting": "Table 3, treated concentration 20 ppm, examined after 5 days", "value": 62}
    ]},
    {"compound": "CC(C)CC(C)c1sccc1NC(=O)c1cn(C)nc1C(F)(F)F", "note": "(racemic) [P (penthiopyrad), (RS)—N-[2-(1,3-dimethylbutyl)thiophen-3-yl]-1-methyl-3-tri fluoromethyl-1H-pyrazole-4-carboxamide]", "values": [
      {"measurement": "Control Value", "setting": "[1]", "value": 20},
      {"measurement": "Control Value", "setting": "Table 9 (Example B), treated concentration 10 ppm", "value": 20}
    ]},
    {"compound": "CC(C)OC(=O)N[C@H](C(=O)N[C@H](C)c1nc2ccc(F)cc2s1)C(C)C", "note": "[Benthiavalicarb-isopropyl, benthiavalicarb-isopropyl]", "values": [
      {"measurement": "Control Value", "setting": "[2]", "value": 70}
    ]},
    {"compound": "Cc1ccc(-c2c(Cl)nc(C#N)n2S(=O)(=O)N(C)C)cc1", "note": "[Cyazofamid, cyazofamid]", "values": [
      {"measurement": "Control Value", "setting": "[1]", "value": 70}
    ]},
    {"compound": "CCNc1nc(CC)c(C(=O)NC(C#N)c2cccs2)s1", "note": "(centres unmarked) [Ethaboxam, ethaboxam]", "values": [
      {"measurement": "Control Value", "setting": "[1]", "value": 62}
    ]},
    {"compound": "CSC1=N[C@@](C)(c2ccccc2)C(=O)N1Nc1ccccc1", "note": "[Fenamidone, fenamidone]", "values": [
      {"measurement": "Control Value", "setting": "[1]", "value": 58}
    ]},
    {"compound": "Cc1ccc(C(C)NC(=O)[C@@H](NC(=O)OC(C)C)C(C)C)cc1", "note": "(some centres unmarked) [Iprovalicarb, iprovalicarb]", "values": [
      {"measurement": "Control Value", "setting": "[2]", "value": 70}
    ]},
    {"compound": "COC(=O)N(OC)c1ccccc1COc1ccn(-c2ccc(Cl)cc2)n1", "note": "[Pyraclostrobin, pyraclostrobin]", "values": [
      {"measurement": "Control Value", "setting": "Table 9 (Example B), treated concentration 5 ppm", "value": 62}
    ]},
    {"compound": "CCC(C)(NC(=O)c1cc(Cl)c(C)c(Cl)c1)C(=O)CCl", "note": "(centres unmarked) [Zoxamide, zoxamide]", "values": [
      {"measurement": "Control Value", "setting": "[1]", "value": 60}
    ]},
    {"compound": "metiram", "values": [
      {"measurement": "Control Value", "setting": "Table 3, treated concentration 50 ppm, examined after 5 days", "value": 56}
    ]}
  ]
}
